From article PMC3267017, “Design, synthesis and in vitro evaluation of novel bivalent S-adenosylmethionine analogues” (Bioorganic & Medicinal Chemistry Letters, 2012)
Read-outs that look alike come from different tables or passages of the source.

What was measured:
[1] = target: T1, MetJ dimer–DNA complex (F-metC) (Escherichia coli, UniProt P0A8U6); parameters: method as in PMID 19194573; conditions: monovalent ligand 4, 2 mM; F-metC 10 nM; read-out: EC50, concentration of MetJ monomer required to promote half-maximal formation of its complex with the F-metC DNA; cited from earlier work
[2] = target: T1, MetJ dimer–DNA complex (F-metC); test: Fluorescence anisotropy assay: MetJ titrated into F-metC DNA and ligand, MetJ dimer–DNA complex formation; assay type: binding; conditions: for EC50: F-metC 10 nM, average of three titrations, read-out: EC50, concentration of MetJ monomer required to promote half-maximal formation of its complex with the F-metC DNA
Excerpt: A fluorescence anisotropy-based binding assay was used to compare the relative ability of SAM analogues to promote MetJ dimer–DNA complex formation. Since SAM has low affinity for MetJ in the absence of DNA,[8,13] measurements were made in the presence of the DNA fragment F-metC, a fluorescently-labeled analogue of the shortest naturally occurring operator sequence, metC.[14] Titration of MetJ into a solution containing fixed concentrations of F-metC and ligand allows the change in anisotropy related to ternary complex formation to be measured (Fig. 5).
Figure 5 Cartoon illustrating the fluorescence anisotropy assay. The SAM molecules promote the formation of a SAM–F-metC–protein complex, with two MetJ dimers bound to the 18 base-pair DNA duplex.
The half-maximal concentration of MetJ, EC50, required to promote complex formation was determined for each ligand. […] The monovalent ligands 11 and 12 (2 mM) and the bivalent ligands 9 and 10 (1 mM) all promoted the formation of the MetJ–DNA complex (Table 1). […] The unquaternised bivalent ligands 9a–e (1 mM) promoted complex formation up to about threefold more effectively than the corresponding monovalent analogue 11. Similarly, the quaternised bivalent ligands 10a and 10b promoted, respectively, complex formation 2.4- and 3.6-fold more effectively than the quaternised monovalent analogue 12.
Analysis of novel SAM analogues binding to MetJ in the presence of operator DNA was carried out using fluorescence anisotropy. Fluorescence anisotropy experiments were performed on a Spex Fluorolog Tau spectrofluorometer (HORIBA Jobin Yvon) controlled by Datamax software. The excitation and emission wavelengths were set to 488 nm and 517 nm respectively. Slit widths were set to 5 nm and all experiments were carried out at 19 °C. The detector integration time was 5 seconds and three readings were taken of each sample to obtain an average anisotropy. Free anisotropy values were 0.051-0.060. Increase in fluorescence anisotropy was observed upon titration of MetJ into a solution of F-metC (10 nM) with and without ligand ([…]) in TK buffer pH 7.6 (50 mM Trizma hydrochloride pH 7.6, 100 mM KCl) with a total starting volume of 200 µL. […] The final DMSO concentration was 2% or less. After each addition, the sample was mixed with a pipette and left to equilibrate for five minutes before the fluorescence anisotropy readings were acquired. The intensity of linear and perpendicular light, compared to the excitation light is measured experimentally and the anisotropy was calculated using the following equation:‖
The data was fitted to a sigmoidal growth logistic model using the following equation: […]
Where A1 refers to the initial value, A2 refers to the final value, x0 refers to the centre and p is a value relating to the slope of the transition. Errors refer the standard deviation of three titration repeats. An arbitrary weighting function with the following equation was employed: […]

T1 sequence (P0A8U6 2-105, one chain of several): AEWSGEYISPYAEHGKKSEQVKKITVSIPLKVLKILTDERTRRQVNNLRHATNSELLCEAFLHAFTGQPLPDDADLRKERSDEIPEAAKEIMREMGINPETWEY

SMILES: CCCNC(=O)CCCN(C)C[C@H]1O[C@@H](n2cnc3c(N)ncnc32)[C@H](O)[C@@H]1O [Compound 4]
- EC50 [1]: 1 ± 0.1 µM

SMILES: CN(CCCC(=O)NCCCCCCNC(=O)CCCN(C)C[C@H]1O[C@@H](n2cnc3c(N)ncnc32)[C@H](O)[C@@H]1O)C[C@H]1O[C@@H](n2cnc3c(N)ncnc32)[C@H](O)[C@@H]1O [Compound 18d, N,N′-Di-[5′-deoxy-5′-N-methyl-N′-(4-butyryl)-adenosine]-1,6-diaminohexane]
- EC50 ([2]; unquaternised ligands 2 mM): 0.047 ± 0.001 µM

SMILES: CN(CC[C@H](N)C(=O)NCc1cccc(CNC(=O)[C@@H](N)CCN(C)C[C@H]2O[C@@H](n3cnc4c(N)ncnc43)[C@H](O)[C@@H]2O)c1)C[C@H]1O[C@@H](n2cnc3c(N)ncnc32)[C@H](O)[C@@H]1O [Compound 9b, N,N′-(1,3-Phenylenebismethylene)bis{(2′S)-2′-amino-4′-[5′′-deoxy-5′′-(methylamino)-adenosyl]butanamide}]
- EC50 ([2]; bivalent ligand 1 mM, DMSO 2%): 0.037 ± 0.002 µM
- Fold-improvement over monovalent control 11 ([2]; unquaternised bivalent ligand 1 mM vs 11 at 2 mM): 3.2-fold
